In one assay the target is T1, Human KIF18A (1-376aa) (Homo sapiens, UniProt Q8NI77).
T1 construct: Human KIF18A (1-376aa) protease used in the experiments; purchased Shanghai Panchao Biotechnology Co., Ltd
T1 sequence (Q8NI77 1-376): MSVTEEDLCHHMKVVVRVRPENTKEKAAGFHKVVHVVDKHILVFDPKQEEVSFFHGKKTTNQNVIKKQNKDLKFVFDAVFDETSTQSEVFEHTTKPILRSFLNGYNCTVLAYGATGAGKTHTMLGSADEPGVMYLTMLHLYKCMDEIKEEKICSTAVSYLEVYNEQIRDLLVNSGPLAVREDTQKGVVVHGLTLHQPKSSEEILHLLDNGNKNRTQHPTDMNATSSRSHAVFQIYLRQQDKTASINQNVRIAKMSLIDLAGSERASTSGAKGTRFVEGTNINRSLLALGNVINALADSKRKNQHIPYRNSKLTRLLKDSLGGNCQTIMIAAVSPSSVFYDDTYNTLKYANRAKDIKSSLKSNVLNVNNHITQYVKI
In words: KIF18A enzyme activity assay (ADP-Glo). The assay is classed as biochemical. As to conditions: microtubule 50 μg/mL, ATP (Km 70 μM), room temperature, 15 min, read-out: KIF18A inhibitory activity IC50. The protocol: Test Example 1: KIF18A Enzyme Activity Assay
Based on the ADP-Glo™ Kinase Assay, the ADP amount generated in the reaction was detected to reflect the enzyme activity of KIF18A.
Human KIF18A (1-376aa) […] used in the experiments, expressed by Shanghai Panchao Biotechnology Co., Ltd., was stored at −80 °C (no more than 5 freeze-thaw cycles).
The assay kit (ADP-Glo™ Kinase Assay) was purchased from Promega (Cat. No. V9101) and stored at −30 °C. The kit detects the enzyme activity by measuring ADP generated in enzyme reaction. The KIF18A enzyme and ATP generate ADP. The remaining ATP in this reaction is consumed by the ADP-Glo reagent, while the ADP generated by the KIF18A enzyme reaction is converted back to ATP by the assay reagent. The ATP then reacts with luciferin in the presence of Ultra-Glo™ luciferase, producing luminescence. The luminescent signal is positively correlated with the activity of the KIF18A enzyme.
Compounds were each subjected to 3-fold serial dilution starting from 10 μM to obtain 10 concentration points. The compounds and pure DMSO (control) were pipetted into wells of a 384-well plate using an Echo instrument, and the total volume of compound and DMSO was 100 nL; sample concentrations of gradient dilution were obtained by the instrument based on different ratios. Preparation of a KIF18A enzyme reaction buffer: […], 10 mM MgCl2, 0.01% Pluronic F-68, 1 μM Taxol, and 50 μg/mL Microtubule. KIF18A and the enzyme reaction buffer were mixed, and then the mixed solution was added to the 384-well plate and incubated at room temperature for 15 min. ATP (Km 70 μM) was then added to the mixed solution, and the mixed solution was incubated at room temperature for 15 min. 10 μL of ADP-Glo™ Reagent was well mixed with 10 μL of the mixed solution, and the mixture was incubated at room temperature for 40 min. Finally, 20 μL of ADP-Glo™ Detection Reagent was added, and the mixture was incubated at room temperature for 30 min. The chemiluminescent signal in each well was measured using an Envision plate reader (PerkinElmer, emission wavelength: 400-700 nm). In the experiment, 1 column of wells with no compound and no enzyme (chemiluminescence value was taken as [RLU]background) and 1 column of wells with enzyme but no compound (chemiluminescence value was taken as [RLU]enzyme) were provided. The chemiluminescence value of the compound adding group was taken as [RLU]cpd. The inhibition rate of the compound on […] was calculated according to the following equation: inhibition rate (%)=([RLU]enzyme−[RLU]cpd)/([RLU]enzyme−[RLU]background)×100%, and the inhibitory activity IC50 value of the compound on the enzyme activity was calculated using a four-parameter Logistic Model method. In the following equation, x represents the logarithmic form of the concentration of compound, and f (x) represents an effect value (inhibition rate of enzyme activity at the concentration): F(x)=(A+((B−A)/(1+((C/x)^D)))). A. B, C, and D are four parameters.
Background: In ADP-Glo the light output rises with the ADP produced.

The subject of a further assay is OVCAR3 cells. Put plainly: Inhibition of proliferation of OVCAR-3 cells (Cell-Titer Glo). The class given is cell-based. As to conditions: Homo sapiens, OVCAR-3, 72 h, 3 days, 1000 cells/well. The source says:
Test Example 2. Test on Inhibition of Proliferation of OVCAR-3 Cells by Compounds of Present Disclosure
Cell and material: The human ovarian cancer cell line OVCAR3 was purchased from ATCC (Cat. No. HTB-161™), RPMI 1640 medium (Gibco #A1049101), penicillin-streptomycin (Gibco #15140122), and 0.25% Trypsin-EDTA (Gibco #25200056) were purchased from Gibco (U.S.), bovine insulin (Yeasen #40107ES60) was purchased from Yeasen, 384-well plates (Corning #CLS3765) was purchased from Corning (U.S.), and Cell-Titer Glo reagent (Promega #G7568) was purchased from Promega (U.S.).
Cell culture: OVCAR3 cells were cultured in RPMI 1640 complete medium (RPMI 1640 medium containing 20% fetal bovine serum, […] bovine insulin, and 1% penicillin-streptomycin) in an incubator (37 °C, 5% CO2), and the cells could be used in experiments when in the logarithmic growth phase.
Cell proliferation activity test: The Cell-Titer Glo reagent was used to test the compound for inhibition of proliferation of the OVCAR3 cell strain. The compound formulated with DMSO and pure DMSO (control) were each added to a 384-well plate using an Echo instrument; the compound was subjected to 3-fold serial dilution starting from 30 μM to obtain 11 concentration points, and the volume of the compound or DMSO added was 100 nL.
OVCAR3 cells were digested and resuspended in RPMI 1640 complete medium, and the suspension was added to a 384-well plate (1000 cells/50 μL/well) to be well mixed with the compound. The mixture was incubated in an incubator (37 °C, 5% CO2) for 3 days. The Cell-Titer Glo reagent was added at 25 µL/well, and the resulting mixture was well mixed by shaking and then incubated for 10 min. The Cell-Titer Glo readings were measured with a Multimode Plate Reader (brand: PerkinElmer; model: SIC-PV-018).
A negative control group (Bottom) was set, and the negative control group was medium wells with 0.2% DMSO added and was defined as 100% proliferation inhibition; the positive control group (Top) was OVCAR3 cell wells with 0.2% DMSO added.
The percent proliferation inhibition (% Inhibition) was calculated, and the curves were fit using the four-parameter equation, Y=Bottom+(Top−Bottom)/(1+(IC50/X)^HillSlope), to obtain the proliferation inhibition IC50 of the compound. • Percent inhibition: % Inhibition=(1−(Signal−Bottom)/(Top−Bottom))×100%. • Signal: Cell-Titer Glo reading of wells with compound added; • Bottom: Cell-Titer Glo reading of negative control wells; • Top: Cell-Titer Glo reading of positive control wells.

Some results are limits rather than exact numbers.

For `O=C(Nc1cccc2c1nc1n2CCCC1)c1ccc(NS(=O)(=O)CCO)cc1N1CCC2(CC1)CC2` [Compound 12], the IC50 (usually the concentration needed to halve the response being measured) was under 0.2 µM on Human KIF18A (1-376aa) and 0.0959 µM in the assay with OVCAR3 cells. For `O=C(Nc1cc2nccn2c(N2CCC(F)(F)CC2)n1)c1ccc(NS(=O)(=O)CCO)cc1N1CCC2(CC1)CC2` [Compound 14], the IC50 in the assay with OVCAR3 cells turned out to be 0.0776 µM. `O=C(Nc1cccc2c1nc1n2CCCCC1)c1ccc(NS(=O)(=O)CCO)cc1N1CCC2(CC1)CC2` [Compound 24]: the IC50 on Human KIF18A (1-376aa) is under 0.2 µM; in the assay on OVCAR3 cells, 0.052 µM. The like results for `O=C(Nc1cc2c(c(N3CCC(F)(F)CC3)c1)OCC2)c1ccc(NS(=O)(=O)CCO)cc1N1CCC2(CC1)CC2` [Compound 28] were, in that order, under 0.2 µM and 0.00367 µM. The like results for `O=C(Nc1cccn2c3c(nc12)CCCCC3)c1ccc(NS(=O)(=O)CCO)cc1N1CCC2(CC1)CC2` [Compound 29] were, in that order, under 0.2 µM and 0.0698 µM.

Take `O=C(Nc1cccc2c1nc1n2CCOC1)c1ccc(NS(=O)(=O)CCO)cc1N1CCC2(CC1)CC2` [Compound 34]: the results for the half-maximal inhibitory concentration (IC50) at Human KIF18A (1-376aa) and with OVCAR3 cells were under 0.2 µM and 0.0228 µM, respectively. Regarding `O=C(Nc1cccc2c1nc1n2CC2CCC1C2)c1ccc(NS(=O)(=O)CCO)cc1N1CCC2(CC1)CC2` (stereo not shown) [Compound 35], the IC50 was under 0.2 µM on Human KIF18A (1-376aa) and 0.088 µM with OVCAR3 cells. The corresponding values for `O=C(Nc1cccc2c1nc1n2CCCC1)c1ccc(S(=O)(=O)NCCO)cc1N1CCC2(CC1)CC2` [Compound 39] are under 0.2 µM and 0.0755 µM. Consider `O=C(Nc1cccc2c1nc1n2CC2CCC1O2)c1ccc(NS(=O)(=O)CCO)cc1N1CCC2(CC1)CC2` (stereo not shown) [Compound 40], for which the results for the IC50 on Human KIF18A (1-376aa) and in the assay with OVCAR3 cells were under 0.2 µM and 0.0366 µM, respectively. The corresponding values for `O=C(Nc1cc2c(c(N3CCC(F)(F)CC3)c1)CCC2)c1ccc(NS(=O)(=O)CCO)cc1N1CCC2(CC1)CC2` [Compound 41] are under 0.2 µM and 0.0168 µM. As to `O=C(Nc1cc2c(c3c1nc1n3CCCC1)OCC2)c1ccc(NS(=O)(=O)CCO)cc1N1CCC2(CC1)CC2` [Compound 42], the concentration for half-maximal inhibition (IC50) at Human KIF18A (1-376aa) is under 0.2 µM; in the assay on OVCAR3 cells, 0.0265 µM. The corresponding values for `O=C(Nc1cn2ccnc2c(N2CCC(F)(F)CC2)n1)c1ccc(NS(=O)(=O)CCO)cc1N1CCC2(CC1)CC2` [Compound 44] are under 0.2 µM and 0.00913 µM. The like results for `O=C(Nc1cc(N2CCC(F)(F)CC2)c2occc2c1)c1ccc(NS(=O)(=O)CCO)cc1N1CCC2(CC1)CC2` [Compound 45] were, in that order, under 0.2 µM and 0.00665 µM. In the case of `O=C(Nc1cccc2c1nc1n2C2CCC1CC2)c1ccc(NS(=O)(=O)CCO)cc1N1CCC2(CC1)CC2` [Compound 47], the IC50 is under 0.2 µM at Human KIF18A (1-376aa) and 0.0562 µM with OVCAR3 cells. As for `O=C(Nc1cccc2c1nc1n2CC2CC12)c1ccc(NS(=O)(=O)CCO)cc1N1CCC2(CC1)CC2` (stereo not shown) [Compound 48], the IC50 at Human KIF18A (1-376aa) is under 0.2 µM; in the assay on OVCAR3 cells it was 0.0204 µM.

Take `O=C(Nc1cccc2c1nc1n2CCC(F)(F)CC1)c1ccc(NS(=O)(=O)CCO)cc1N1CCC2(CC1)CC2` [Compound 49]: the IC50 is under 0.2 µM on Human KIF18A (1-376aa) and 0.0496 µM in the assay with OVCAR3 cells. The corresponding values for `N#Cc1ccc(NC(=O)c2ccc(NS(=O)(=O)CCO)cc2N2CCC3(CC2)CC3)c2nc3n(c12)CCCC3` [Compound 50] are under 0.2 µM and 0.0489 µM.

For `O=C(Nc1cc2c(c(N3CCOCC3)c1)OCC2)c1ccc(NS(=O)(=O)CCO)cc1N1CCC2(CC1)CC2` [Compound 51], the IC50 at Human KIF18A (1-376aa) is under 0.2 µM; in the assay on OVCAR3 cells, 0.0681 µM.

Take `O=C(Nc1cccc2c1nc1n2CCOCC1)c1ccc(NS(=O)(=O)CCO)cc1N1CCC2(CC1)CC2` [Compound 53]: the results for the IC50 on Human KIF18A (1-376aa) and in the assay on OVCAR3 cells were under 0.2 µM and 0.021 µM, respectively.

As to `O=C(Nc1cccc2c1nc1n2CCCOC1)c1ccc(NS(=O)(=O)CCO)cc1N1CCC2(CC1)CC2` [Compound 54], the 50% inhibitory concentration (IC50) at Human KIF18A (1-376aa) was under 0.2 µM; with OVCAR3 cells, 0.021 µM. The corresponding values for `CC1Cn2c(nc3c(NC(=O)c4ccc(NS(=O)(=O)CCO)cc4N4CCC5(CC4)CC5)cccc32)CO1` (stereo not shown) [Compound 55] are under 0.2 µM and 0.0175 µM.

As for `CC1OCCn2c1nc1c(NC(=O)c3ccc(NS(=O)(=O)CCO)cc3N3CCC4(CC3)CC4)cccc12` (stereo not shown) [Compound 56], the results for the IC50 on Human KIF18A (1-376aa) and in the assay with OVCAR3 cells were under 0.2 µM and 0.0312 µM, respectively. `Cn1cc(NC(=O)c2ccc(NS(=O)(=O)CCO)cc2N2CCC3(CC2)CC3)nc(N2CCC(F)(F)CC2)c1=O` [Compound 58]: the results for the IC50 on Human KIF18A (1-376aa) and with OVCAR3 cells were under 0.2 µM and 0.008 µM, respectively. In the case of `O=C(Nc1cccc2c1nc1n2CC2CC1O2)c1ccc(NS(=O)(=O)CCO)cc1N1CCC2(CC1)CC2` (stereo not shown) [Compound 59], the IC50 on Human KIF18A (1-376aa) was under 0.2 µM; with OVCAR3 cells, 0.0233 µM.

As to `O=C(Nc1cc2c(c(N3CCC(F)(F)CC3)c1)OCCC2)c1ccc(NS(=O)(=O)CCO)cc1N1CCC2(CC1)CC2` [Compound 60], the IC50 was under 0.2 µM at Human KIF18A (1-376aa) and 0.011 µM in the assay on OVCAR3 cells.

In the case of `O=C(Nc1cccc2c1nc1n2CCCCCC1)c1ccc(NS(=O)(=O)CCO)cc1N1CCC2(CC1)CC2` [Compound 61], the 50% inhibitory concentration (IC50) at Human KIF18A (1-376aa) is under 0.2 µM; in the assay with OVCAR3 cells, 0.077 µM.

Regarding `O=C(Nc1cccc2c3c(nn12)CCCCC3)c1ccc(NS(=O)(=O)CCO)cc1N1CCC2(CC1)CC2` [Compound 64], the IC50 at Human KIF18A (1-376aa) is under 0.2 µM; in the assay with OVCAR3 cells it was 0.0657 µM. As to `O=C(Nc1cc2c(c(N3CCC(F)(F)CC3)n1)OCC2)c1ccc(NS(=O)(=O)CCO)cc1N1CCC2(CC1)CC2` [Compound 65], the values for the IC50 at Human KIF18A (1-376aa) and in the assay on OVCAR3 cells were under 0.5 µM and 0.0167 µM, respectively.

(Values after patent US20260364057A1, “AMIDE COMPOUND, AND COMPOSITION AND USE THEREOF” (SIMCERE ZAIMING PHARMACEUTICAL CO., LTD., priority 2022, published 2026).)
